# Source: patent publication US20160320368A1, “METHOD AND APPARATUS FOR PREDICTING EFFECTIVE DOSE OR SENSITIVITY OF 5-HYDROXY-1H-IMIDAZOLE-4-CARBOXAMIDE, METHOD FOR DETERMINING AMOUNT OF XANTHOSINE MONOPHOSPHATE, AND TREATMENT AGENT AND METHOD FOR TREATING MYELODYSPLASTIC SYNDROME” (FUJIFILM Corporation, priority 2014, published 2016)
# Like-named read-outs stand apart in the source and are kept apart here.
# Assays:
# [1] = system: XMP in blood cells after hemolysis; experiment: XMP in blood cells after hemolysis (Example 5); type: cell-based; details: Homo sapiens, 37° C., 8 hours, non-treated = 100%; for XMP amount (% of non-treated) at 1 µg/mL: Compound A 1 μg/mL; for XMP amount (% of non-treated) at 3 µg/mL: Compound A 3 μg/mL; for XMP amount (% of non-treated) at 10 µg/mL: Compound A 10 μg/mL; for XMP amount (% of non-treated) at 30 µg/mL: Compound A 30 μg/mL; for XMP amount (% of non-treated) at 100 µg/mL: Compound A 100 μg/mL
# Method: A ¾ hydrate of Compound A was used s a test compound.
# 450 μL of the blood collected from two healthy individuals by heparinized blood collection (Analyte A and Analyte B) was added to each tube, and 50 μL of a PBS solution of the test compound (0 μg/mL, 10 μg/mL, 30 μg/mL, 100 μg/mL, 300 μg/mL, or 1000 μg/mL in terms of Compound A) for each concentration was added to each tube. The reaction mixture was stirred in an incubator at 37° C. for 8 hours.
# BD Pharm Lyse (555899, manufactured by Becton, Dickinson and Company, Inc.) was added to the blood sample obtained in (1) (2 mL of BD Pharm Lyse was added relative to 0.2 mL of blood). After stirring with a vortex mixer, the reaction solution was protected from light and allowed to stand at room temperature for 15 min. After centrifugation at 20° C. and 1000×g for 5 min, the supernatant was removed and suspended in 10 mL of PBS. After centrifugation at 4° C. and 1000×g for 5 min, the supernatant was removed, and 1000 μL of methanol was added to each tube, followed by stirring. Thereafter, 500 μL of ultrapure water was added thereto, followed by further stirring. 600 μL of the reaction solution was divided into each of two tubes, and 400 μL of chloroform was added to each tube. The reaction solution was stirred and then centrifuged at 4° C. and 10000×g for 15 min. 400 μL of the aqueous phase was recovered and added to an ultrafiltration tube (UltrafreeMC-PLHCC 250/pk for Metabolome Analysis (manufactured by Human Metabolome Technologies)), followed by centrifugation at 12° C. and 9200×g for 2 hours. The filtrates were combined and then dried under reduced pressure at 40° C. for 2 hours by using a centrifugal evaporator. After drying, the resulting product was stored in a freezer at −80° C.
# The samples obtained in (2-1) and (2-2) were returned to room temperature and 40 μL of ultrapure water was added to each sample. The mixture was stirred and centrifuged at 4° C. and 21500×g for 5 min. 35 μL of the supernatant was transferred to a vial. After storage at 4° C., XMP in samples was determined in the LC-MS/MS determination instrument, LC conditions and MS/MS conditions described in Example 3 (3).
# (§1) Amounts of XMP (%) were calculated assuming that amounts of XMP in a non-Compound A treated group are defined as 100%.
# [2] = system: XMP in blood cells; experiment: XMP in blood cells of mice after oral administration; type: in vivo, female mice (BALB/cAJcl); details: 100 mg/kg oral, non-treated = 100%
# Method: A ¾ hydrate of Compound A was used as a test compound.
# 0.5% MC or 0.5% MC of the test compound (100 mg/kg in terms of Compound A) was orally administered to female mice (BALB/cAJcl).
# Whole blood was collected from the postcava of animals under anesthesia by isoflurane inhalation at 1, 4, 8 or 24 hours post-dose, using a polypropylene syringe treated with an ethylenediaminetetraacetic acid disodium salt and a 25 gauge injection needle. BD Pharm Lyse (555899, manufactured by Becton, Dickinson and Company, Inc.) was added to the blood (2 mL of BD Pharm Lyse was added relative to 0.2 mL of blood). After stirring with a vortex mixer, the reaction solution was protected from light and allowed to stand at room temperature for 15 min. After centrifugation at 20° C. and 1000×g for 5 min, the supernatant was removed and suspended in 10 mL of a PBS solution. After centrifugation at 4° C. and 1000×g for 5 min, the supernatant was removed, and 1000 μL of methanol was added to each tube, followed by stirring. Thereafter, 500 μL of ultrapure water was added thereto, followed by further stirring. 600 μL of the reaction solution was divided into each of two tubes, and 400 μL of chloroform was added to each tube. The reaction solution was stirred and then centrifuged at 4° C. and 10000×g for 15 min. 400 μL of the aqueous phase was recovered and added to an ultrafiltration tube, followed by centrifugation at 12° C. and 9200×g for 2 hours. The filtrates were combined and then dried under reduced pressure at 40° C. for 2 hours by using a centrifugal evaporator. After drying, the resulting product was stored in a freezer at −80° C.
# The samples obtained in (2-1) and (2-2) were returned to room temperature, and 40 μL of ultrapure water was added to the hemolysis sample and 150 μL of ultrapure water was added to the bone marrow sample. The mixture was stirred and then centrifuged at 4° C. and 21500×g for 5 min. For the hemolysis sample, 35 μL of the supernatant was transferred to a vial. For the bone marrow sample, 140 μL of the supernatant was transferred to a vial. After storage at 4° C., XMP in samples was determined in the LC-MS/MS determination instrument, LC conditions and MS/MS conditions described in Example 3 (3).
# as §1
# [3] = read-out: Amount of XMP (%) Analyte A Hemolysis
# [4] = read-out: Amount of XMP (%) Analyte B Hemolysis
structure (smiles),measurement,setting,value
"NC(=O)c1nc[nH]c1O [Compound A, 5-Hydroxy-1H-imidazole-4-carboxamide]",XMP amount (% of non-treated) at 1 µg/mL,[1]; [3],60%
same,XMP amount (% of non-treated) at 1 µg/mL,[1]; [4],51%
same,XMP amount (% of non-treated) at 3 µg/mL,[1]; [3],45%
same,XMP amount (% of non-treated) at 3 µg/mL,[1]; [4],37%
same,XMP amount (% of non-treated) at 10 µg/mL,[1]; [3],37%
same,XMP amount (% of non-treated) at 10 µg/mL,[1]; [4],25%
same,XMP amount (% of non-treated) at 30 µg/mL,[1]; [3],27%
same,XMP amount (% of non-treated) at 30 µg/mL,[1]; [4],18%
same,XMP amount (% of non-treated) at 100 µg/mL,[1]; [3],16%
same,XMP amount (% of non-treated) at 100 µg/mL,[1]; [4],10%
same,Amount of XMP (%) Blood cell,[2]; 1 hr post-dose,3.4%
same,Amount of XMP (%) Blood cell,[2]; 4 hr post-dose,7.2%
same,Amount of XMP (%) Blood cell,[2]; 8 hr post-dose,26.4%
same,Amount of XMP (%) Blood cell,[2]; 24 hr post-dose,70.7%
